This is an account of results in patent US8309068B2, “Isolated polypeptides and methods of improving muscle strength” (Myostin Therapeutics Pty Ltd., priority 2006, dated 2012).

The test system of data set [1] is C57B mice injected with Dexamethasone. Description: In vivo cachexia trial (Dexamethasone-induced). As for the experimental part:
A study of chronic cachexia was designed whereby C57B mice, 4 weeks of age, were injected with the glucocorticoid drug Dexamethasone daily at a concentration of 1 mg/kg body weight. Three treatment groups were designed: 5 mice receiving daily injections of saline, 5 mice receiving daily injections of Dexamethasone and 5 mice receiving daily injections of Dexamethasone plus 300 antagonist at a concentration of 6μg/g body weight. Body weight of the mice was recorded daily and monitored closely for signs of cachexia. Food and water consumption was recorded to ensure that loss in body weight was not due to a loss of appetite or thirst. Body weights, fat-pad weights, and MyoD and Pax7 expression were assessed.

The next data set has as its system satellite cells. Description: Single muscle fibre satellite cell activation assay (PCNA labeling). Format: cell-based, mice. The note with it: single fibres from old (2 year old) mice; 5 μg/ml; 24 or 48 hours. On the procedure:
Single fibres were isolated as previously described Rosenblatt et al., (1995). Briefly, 1 and 24 month old wild-type mice were euthanized by CO2 gas followed by cervical dislocation. TA were dissected out and digested in 0.2% (w/v) type 1A collagenase (>260 CDU/mg, Sigma) in Dulbecco's modified Eagle medium (DMEM) (Invitrogen) for 60 minutes at 37° C. Muscles were transferred to DMEM +10% horse serum (HS) +0.5% chicken embryo extract (CEE) and fibres were separated by gentle trituration. Isolated fibres were transferred to 4 well chamber slides (Becton Dickinson) coated with 10% matrigel (Becton Dickinson) and fixed with 100% ice cold methanol for 10 minutes after culturing up to 72 hours at 37° C. in 5% CO2.
Proliferating Cell Nuclear Antigen (PCNA) is expressed in cells that are actively undergoing cell cycle but not in quiescent cells. […] However, upon activation, satellite cells are activated to express PCNA and regenerate the muscle by replenishing the muscle fibres. Thus PCNA is a very reliable antigen to marker for the activated satellite cells.
In order to determine the effect of myostatin antagonists on satellite cell activation, single muscle fibres from TA muscle of young (1 month) or old (24 month) wild type mice were cultured in presence of 5 μg/ml of myostatin antagonist 320, 310 or 300, in culture media for 24, 48 and 72 hours and fixed with methanol and washed in PBS. The fixed fibres were permeabilised in 0.5% TritonX-100 in PBS for 10 minutes, blocked in 10% normal goat serum and 0.35% carrageenan lambda in PBS for 30 minutes at room temperature then incubated with a 1:100 dilution of anti-PCNA antibody in blocker overnight. Primary antibody was detected using goat anti-mouse-alexa fluor 546 and fibres were counterstained with DAPI. PCNA positive activated satellite cells were counted under microscope and expressed as a percent of total myonuclei.

In data set [2] the test system is Human skeletal muscle myoblasts. Description: Human myoblast proliferation assay. Format: cell-based. The note with it: 1, 5 or 10 μg/ml; 144 hours. As for the experimental part:
(§1) Human skeletal muscle myoblasts (Cambrex, USA) or primary ovine myoblasts were grown in Dulbecco's Modified Eagle Medium containing 20% FBS, 10% Horse serum and 0.5% chicken embryo extract according to the standard techniques. The myoblast proliferation assay was carried out in uncoated 96-well microtitre plates. Cell cultures were seeded at 2000 cells/well. Following a 24-hour attachment period, test media supplemented with 5% FCS containing either buffer as a control or different myostatin antagonists (300, 310 or 320) were added at 1, 5 and 10 μg/ml and cells were incubated for a further 144 hour period (for human cells) or 48 hours (for ovine cells). After the incubation period, proliferation was assessed using methylene blue photometric endpoint assay as previously described (Thomas et al, 2000).

Data set [3] concerns myostatin. The experiment in a line: C2C12 myoblast proliferation competition assay: wild type myostatin competed with antagonists. Format: cell-based. The note with it: antagonist 1, 5 and 10 μg/ml; myostatin 2.25 μg/ml. On the procedure:
(§2) Bovine C2C12 myoblasts were grown in Dulbecco's modified eagle medium according to the standard techniques (Thomas et al, 2000). The myoblast proliferation assay was carried out in uncoated 96-well microtitre plates. C2C12 cultures were seeded at 1000 cells/well. Following a 16-hour attachment period, test media containing either recombinant wild type myostatin or different myostatin antagonists were added and cells were incubated for a further 48 or 72 hour period. For competition assay, wild type myostatin was competed with different concentrations of myostatin antagonists prior to the addition into the media. After the incubation period, proliferation was assessed using methylene blue photometric endpoint assay as previously described (Thomas et al, 2000).

The subject of a further data set is C2C12 myoblasts. The experiment in a line: C2C12 myoblast proliferation assay (methylene blue endpoint). Format: cell-based, murine. The following applies: for proliferation capacity of myoblasts compared to control: 1 μg/ml or 5 μg/ml over 48 or 72 hours; for concentration at which the highest myoblast proliferation rate was observed: 48 hour time point. On the procedure:
A polypeptide of the invention, or a fragment, variant or derivative thereof has the biological function of antagonising myostatin activity. To determine whether a polypeptide of the invention, or a fragment, variant or derivative thereof, is able to antagonise myostatin activity, such activity can be tested by growing myoblasts in the presence or absence (control) of a candidate polypeptide of the invention. […]
as §2, with “The” for “Bovine C2C12 myoblasts were grown in Dulbecco's modified eagle medium according to the standard techniques (Thomas et al, 2000). The”

Data set [4] deals with myostatin. Description: Myoblast chemotaxis assay, recovery of myostatin chemo-inhibition by antagonists. Format: cell-based. As for the experimental part:
Primary myoblasts were cultured from the hind limb muscle of young (4 to 6 week old) or old (24 month old) mice, according to the published protocols (Allen et al., 1997; Partridge, 1997). Briefly, muscles were minced, and digested in 0.2% collagenase type 1A for 90 min. Cultures were enriched for myoblasts by pre-plating on uncoated plates for 3 hours. Myoblast cultures were maintained in growth media (GM) supplemented with 20% fetal calf serum (FCS), 10% HS and 1% CEE on 10% Matrigel coated plates, at 37° C./5% CO2. The extent of culture purity was assessed by flow cytometry analysis of MyoD expression after 48 hours in culture. Cells were harvested using trypsin, suspended at a concentration of 10^6 cells/200 μl and fixed overnight in 5 ml 70% ethanol at −20° C. Staining was performed for 30 min at room temperature using rabbit polyclonal anti-MyoD, 1:200 (Santa Cruz), followed by Alexa fluor 488 anti-rabbit conjugate, 1:500 (Molecular Probes). Analysis was carried out in duplicate with 10^4 cell events collected in each assay. Debris was excluded by gating on forward and side scatter profiles. Cells were analyzed by FACScan (Becton Dickinson). Macrophages were isolated by a peritoneal lavage technique and/or derived from bone marrow Zymosan-activated mouse serum (ZAMS) was prepared according to the published protocol (Colditz and Movat, 1984).
For the chemotaxis assay of myoblasts, a first assay was carried out on myoblasts from 2 year old mice as follows. DMEM containing 2% horse serum (HS), 5% chicken embryo extract (CEE) plus dialysis buffer was used as positive control. […] Plain DMEM was used as negative control. On a 24-well plate, the bottom wells were filled with test or control media. Seventy-five thousand cells were added to the top wells containing polyethylene terephthalate (PET) 0.8 μm membranes coated with 1% Matrigel. The plate was incubated for 7 h at 37° C., 5% CO2. […] The membrane was then fixed, stained in Gill's hematoxylin and wet mounted on slides. Migrated cells were counted on four representative fields per membrane and the average number plotted. The results are shown in FIG. 6 (myoblast migration from old mice) and FIG. 7 (myoblast migration from young mice).

A further data set deals with primary ovine myoblasts. Description: Ovine myoblast proliferation assay. Format: cell-based. The note with it: 1, 5 or 10 μg/ml; 48 hours. As for the experimental part:
as §1

Setting [5] is: Dexamethasone, right gastrocnemius, p<0.05.
[6] abbreviates: myoblasts from old (2 year old) mice, antagonist added at 5 μg/ml, myostatin 2.5 μg/ml.

“Also recorded” adds a separate entry of the source. Where no end group is shown, it is not given here.

Consider `C[C@@H]1C[C@H]2[C@@H]3CCC4=CC(=O)C=C[C@]4(C)[C@@]3(F)[C@@H](O)C[C@]2(C)[C@@]1(O)C(=O)CO` [Dexamethasone, reference compound], for which the “average body weight compared with saline injected controls” value in data set [1] (Dexamethasone 1 mg/kg daily, 22 days) is given as “reduction in average body weight”. Moreover, in data set [1] (Dexamethasone only), the “increase in left retroperitoneal fat-pad weight compared to saline” value is on record as 62.9% and the “increase in right retroperitoneal fat-pad weight compared to saline” value was 60.4%. Moreover, in data set [1] (Dexamethasone only, p<0.05), the “left and right retroperitoneal and inguinal fat-pad weights compared to saline” value was “statistically significant increases”. In data set [1] (setting [5]), the “MyoD expression (Western blot)” value is given as “significant down-regulation” and the “Pax7 expression (Western blot)” value is reported as “significant down-regulation”.

In the case of “myostatin antagonist 310: recombinant peptide, amino acids 267-310 of bovine myostatin, with N terminal and C terminal tag (SEQ ID NO: 5) (DFGLDCDEHSTESRCCRYPLTVDFEAFGWDWIIAPKRYKANYCS; cysteine pairing not given here; also: N- and C-terminal tags; listed as Homo sapiens)”, in the data set on satellite cells, the “percentage of activated satellite cells” value is on record as “Significant increases”. In addition, in data set [2], the “proliferation capacity of human myoblasts compared to control” value is recorded as “significantly enhanced”. Further, the “rescue of the proliferation-inhibiting effects of myostatin on myoblasts” value with myostatin [3] is recorded as “rescued to levels similar to those observed in the positive control”. Further, in the data set with C2C12 myoblasts, the “proliferation capacity of myoblasts compared to control” value was “significantly enhanced”. Also, the “concentration at which the highest myoblast proliferation rate was observed” value (“concentration” below) in the data set with C2C12 myoblasts was found to be 5 µg/mL. Moreover, the “rescue of chemo-inhibiting effects of myostatin on myoblast migration” value in the data set with myostatin [4] (setting [6]) was “rescued to levels similar to those observed in the control”; in the data set on myostatin [4] (myoblasts from young (1 month old) mice) it was “rescued the migration of myostatin cells to control levels”. Also, the “proliferation capacity of ovine myoblasts compared to control” value in the data set on primary ovine myoblasts was “significantly enhanced”.

Regarding “myostatin antagonist 320: recombinant peptide, amino acids 267-320 of bovine myostatin, with N terminal and C terminal tag (SEQ ID NO: 4) (DFGLDCDEHSTESRCCRYPLTVDFEAFGWDWIIAPKRYKANYCSGECEFVFLQK; cysteine pairing not given here; also: N- and C-terminal tags; listed as Homo sapiens)”, the “percentage of activated satellite cells” value in the data set on satellite cells is reported as “Significant increases”. In addition, in data set [2], the “proliferation capacity of human myoblasts compared to control” value is listed as “significantly enhanced”. Moreover, in the data set on myostatin [3], the “rescue of the proliferation-inhibiting effects of myostatin on myoblasts” value was “rescued to levels similar to those observed in the positive control”. Further, in the data set on C2C12 myoblasts, the “proliferation capacity of myoblasts compared to control” value was “significantly enhanced” and the “concentration” value stood at 5 µg/mL. In addition, the “rescue of chemo-inhibiting effects of myostatin on myoblast migration” value with myostatin [4] (setting [6]) is reported as “rescued to levels similar to those observed in the control”. In the data set with primary ovine myoblasts, the “proliferation capacity of ovine myoblasts compared to control” value is given as “significantly enhanced”.

As for “myostatin antagonist 280: recombinant peptide, amino acids 267-280 of bovine myostatin, with tags; contains only one cysteine residue; inactive comparison (DFGLDCDEHSTESR; also: with tags; UniProt O18836 267-280, looked up, fragment)”, the “proliferation capacity of myoblasts compared to control” value in the data set with C2C12 myoblasts is reported as “did not show activity above the control”. In the data set on C2C12 myoblasts (listed as 280), the “biological (myostatin antagonist) activity of the peptide” value was “appears to be inactive; also recorded: not biologically active”.

B1: myostatin antagonist 329: recombinant peptide, amino acids 267-329 of bovine myostatin, with N terminal and C terminal tag (SEQ ID NO: 3) (protein, listed as Homo sapiens)
chain: DFGLDCDEHSTESRCCRYPLTVDFEAFGWDWIIAPKRYKANYCSGECEFVFLQKYPHTHLVHQ
modifications: N- and C-terminal tags
As for B1, in the data set on C2C12 myoblasts, the “proliferation capacity of myoblasts compared to control” value is listed as “significantly enhanced” and the “concentration” value amounted to 10 µg/mL.
